Where a name gives a salt, the structure may show the parent alone. Read-outs that look alike come from different tables or passages of the source.
Tests used:
5-lipoxygenase = molecular target: T1, 5-lipoxygenase (Mus musculus, UniProt P48999); test: 5-Lipoxygenase Assay (MC-9 mast cells, 5-HETE and LTC4 production); format: cell-based, murine; settings: for inhibition at 3.12 µM: MC9, 3.12 μM dose; for inhibition at 6.25 µM: MC9, 6.25 μM dose; for inhibition at 12.5 µM: MC9, 12.5 μM dose; for inhibition at 25 µM: MC9, 25 μM dose
T1 construct: Preincubate MC-9 cells (0.39 ml at 7.5×10^6 cells/ml) without or with test compound; endogenous in cells; host or cells: MC-9 murine mast cell clone (interleukin-3-dependent)
T1 sequence (P48999 1-674): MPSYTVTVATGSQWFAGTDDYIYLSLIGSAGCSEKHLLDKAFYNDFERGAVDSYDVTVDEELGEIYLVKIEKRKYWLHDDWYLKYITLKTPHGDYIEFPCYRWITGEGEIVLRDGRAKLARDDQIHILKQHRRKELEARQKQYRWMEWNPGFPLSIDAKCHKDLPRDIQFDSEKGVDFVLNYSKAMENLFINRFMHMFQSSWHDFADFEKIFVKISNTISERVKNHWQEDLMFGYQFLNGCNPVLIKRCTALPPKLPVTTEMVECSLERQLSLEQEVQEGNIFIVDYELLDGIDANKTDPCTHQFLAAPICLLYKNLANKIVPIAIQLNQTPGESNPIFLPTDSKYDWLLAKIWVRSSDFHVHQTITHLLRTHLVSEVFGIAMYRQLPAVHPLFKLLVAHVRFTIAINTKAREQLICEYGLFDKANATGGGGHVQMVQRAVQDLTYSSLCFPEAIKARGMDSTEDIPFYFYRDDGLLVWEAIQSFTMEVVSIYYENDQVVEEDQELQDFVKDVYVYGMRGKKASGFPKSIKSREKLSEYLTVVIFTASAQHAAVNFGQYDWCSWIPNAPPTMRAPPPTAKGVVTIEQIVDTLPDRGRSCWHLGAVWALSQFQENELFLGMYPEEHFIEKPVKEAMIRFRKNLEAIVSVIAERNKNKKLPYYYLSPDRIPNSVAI
Method: Preincubate MC-9 cells (0.39 ml at 7.5×10^6 cells/ml) without or with test compound dissolved in dimethylsulfoxide (DMSO) vehicle (to a final volume 1 μl) for 4 minutes then incubate for 5 minutes with [^14 C]arachidonic acid (Amersham, 59 Ci/mole) at a 9 μM final concentration, and A23187 (Calbiochem) at a 1 μM final concentration in 10 μl of water:ethanol (9:1). Stop the reaction by addition of methanol (0.4 ml), and remove cellular debris by centrifugation. Run aliquots (250 μl) of the incubations on a Waters two-pump HPLC system fitted with a Waters radial compression column (C18, 10 micron, 8×100 mm, micro-Bondapak) and C18 "Guard Pak". Initially elute the column at 3 ml/min with water:methanol:acetic acid (67:33:0.08) containing 1 mM EDTA adjusted to pH 6.0 with ammonium hydroxide (Pump A). At 4 minutes, establish a linear gradient to reach 100% methanol (Pump B) at 9 minutes. Between 13 and 14 minutes, exchange for the initial eluting solvent and by 19 minutes the column will be reequilibrated for the next sample. Analyze the effluent by a continuous flow radioactivity monitor (model ROMONA-D) interfaced with a Hewlett Packard Lab Automation System for quantitation of radioactive products. […] Doses in table 2 are 50 μM unless otherwise noted.

[1] = test system: Peptidoleukotriene Release in Guinea Pig Lung; test: Peptidoleukotriene Release Inhibition in Lung Assay; format: cell-based; settings: Cavia porcellus; final concentration of 50 μm (so in the source); ovalbumin challenge, sensitized guinea pig lung
Excerpt: The anti-allergy method of this invention is identified by tests that measure inhibition of leukotriene release in sensitized guinea pigs by compounds of the invention. This procedure is as follows.
First, kill sensitized guinea pigs by a blow to the head, remove the lungs and clean them of visible connective tissue, trachea and large blood vessels. Slice the lungs from individual animals into fragments approximately 1 mm in thickness using a McIlwain tissue chopper and wash them with oxygenated Tyrode's buffer. Transfer weighed aliquots (approximately 400 mg wet weight) of lung into vials containing 2 ml of fresh Tyrode's solution (containing 10 mM cysteine) and incubate in the presence or absence of test compound for 12 minutes at 37° C., challenge the tissues with 20 μg ovalbumin/ml (final concentration) and incubate for 15 minutes. To measure leukotriene release, extract an aliquot of supernatant fluid with 4 volumes of 100% ethanol. After removal of the precipitated protein, dry the clear fluid under a stream of N2 gas. Measure the leukotriene content by a radioimmunoassay using [^3 H]LTC4 (leukotriene C4) and antiserum obtained from New England Nuclear. […] Calculate percent inhibition of leukotriene release by comparing for each lung the release in the presence of the test compound to that in the absence of test compound.

[2] = MC9, 50 μM dose, MC-9 cells, read-out: % Inhibition 5-HETE
[3] = MC9, 50 μM dose, MC-9 cells, read-out: % Inhibition LTC4
[4] = MC-9 cells, read-out: % Inhibition 5-HETE
[5] = MC-9 cells, read-out: % Inhibition LTC4

Compound	inhibition at 50 µM (5-lipoxygenase; [2]) [%]	inhibition at 50 µM [1] [%]	other results
CC(=O)Oc1cc(OC(C)=O)c2c3c(n(C)c(=O)c2c1)CCC3	56	–	–
O=c1[nH]c2c(c3c(O)cc(O)cc13)CCC2	31	–	–
O=C1c2cc(O)cc(O)c2C(O)(c2ccccc2)C2CCCCN12 (stereo not shown) [1,2,3,4,11,11a-hexahydro-8,10,11-trihydroxy-11-phenyl-6H-benzo[b]quinolizin-6-one]	23	–	inhibition at 50 µM (5-lipoxygenase; [3]): 32%
O=c1c2cc(O)cc(O)c2c(O)c2n1CCCC2 [1,2,3,4-tetrahydro-8,10,11-trihydroxy-6H-benzo[b]quinolizin-6-one]	18	28	–
Cc1c2n(c(=O)c3cc(O)cc(O)c13)CCCC2 [1,2,3,4-tetrahydro-8,10-dihydroxy-11-methyl-6H-benzo[b]quinolizin-6-one, disodium salt]	–	71	inhibition at 50 µM (5-lipoxygenase; MC9, read-out: % Inhibition 5-HETE): 88%
O=c1[nH]c2c(c3c(O)cc(O)cc13)CCCC2 [1,3,4,5-tetrahydro-8,10-dihydroxy-phenanthridin-6(2H)-one]	31	–	–
CC(=O)Oc1cc(OC(C)=O)c2c(-c3ccccc3)c(C)n(C)c(=O)c2c1 [5,7-bis(acetyloxy)-2,3-dimethyl-4-phenyl-1(2H)-isoquinolinone]	5	45	–
CC(=O)Oc1cc(OC(C)=O)c2c(-c3ccccc3)c(C)[nH]c(=O)c2c1 [5,7-bis(acetyloxy)-3-methyl-4-phenyl-1(2H)-isoquinolinone]	31	12	inhibition at 50 µM (5-lipoxygenase; [3]): 27%
CC(=O)Oc1cc(OC(C)=O)c2c(C)c[nH]c(=O)c2c1 [5,7-bis(acetyloxy)-4-methyl-1(2H)-isoquinolinone]	43	–	inhibition at 50 µM (5-lipoxygenase; [3]): 40%
CC(=O)Oc1cc(OC(C)=O)c2c(-c3ccccc3)c[nH]c(=O)c2c1 [5,7-bis(acetyloxy)-4-phenyl-1(2H)-isoquinolinone]	19	–	inhibition at 50 µM (5-lipoxygenase; [3]): 16%
CC(=O)Oc1cc(OC(C)=O)c2c(-c3ccccc3)c3n(c(=O)c2c1)CCC3 [7,9-bis(acetyloxy)-2,3-dihydro-10-phenyl-6H-pyrrolo[1,2-b]isoquinolin-5(1H)-one]	18	76	inhibition at 50 µM (5-lipoxygenase; [3]): 10%
CC(=O)Oc1cc(OC(C)=O)c2c(OC(C)=O)c3n(c(=O)c2c1)CCCC3 [8,10,11-tris(acetyloxy)-1,2,3,4-tetrahydro-6H-benzo[b]quinolizin-6-one]	2	39	–
Cc1c2n(c(=O)c3cc(OC(=O)C(C)(C)C)cc(OC(=O)C(C)(C)C)c13)CCCC2 [8,10-bis(2,2-dimethyl-1-oxopropoxy)-11-methyl-1,3,4,6-tetrahydro-6H-benzo[b]quinolizin-6-one]	45	5	–
CC(=O)Oc1cc(OC(C)=O)c2c(-c3ccccc3)c3n(c(=O)c2c1)CCCC3 [8,10-bis(acetyloxy)-1,2,3,4,-tetrahydro-11-phenyl-6H-benzo[b]quinolizin-6-one]	21	66	–
CC(=O)Oc1cc(OC(C)=O)c2c3c([nH]c(=O)c2c1)CCCC3 [8,10-bis(acetyloxy)-1,3,4,5,6-tetrahydro-6(2H)-phenanthridinone]	56	36	inhibition at 50 µM (5-lipoxygenase; [3]): 41%
Cc1c2n(c(=O)c3cc(OC(=O)CN)cc(OC(=O)CN)c13)CCCC2 [8,10-bis[(aminoacetyl)oxy]-11-methyl-1,2,3,4-tetrahydro-6H-benzo[b]quinolizine-6-one dihydrochloride]	99	–	–
CC(=O)Oc1ccc2c(c1)C(=O)N1CCCCC1C2(C)O (stereo not shown) [8-acetyloxy-1,2,3,4,11,11a-hexahydro-11-hydroxy-11-methyl-6H-benzo[b]quinolizin-6-one]	5	–	–
CC(=O)Oc1ccc2c(C)c3n(c(=O)c2c1)CCCC3 [8-acetyloxy-1,2,3,4-tetrahydro-11-methyl-6H-benzo[b]quinolizin-6-one]	19	9	–
CC(=O)Oc1ccc2c(=O)n3c(c(C)c2c1OC(C)=O)CCCC3 [9,10-bis(acetyloxy)-1,2,3,4-tetrahydro-11-methyl-6H-benzo[b]quinolizin-6-one]	74	84	–
CC(=O)Oc1cc(OC(C)=O)c2c(C)c3n(c(=O)c2c1)CCCC3 [A, 8,10-bis(acetyloxy)-1,2,3,4-tetrahydro-11-methyl-6H-benzo[b]quinolizin-6-one]	–	69	inhibition at 3.12 µM (5-lipoxygenase; [4]): 50%; inhibition at 3.12 µM (5-lipoxygenase; [5]): 57%; inhibition at 6.25 µM (5-lipoxygenase; [4]): 65%; inhibition at 6.25 µM (5-lipoxygenase; [5]): 59%; inhibition at 12.5 µM (5-lipoxygenase; [4]): 62%; inhibition at 12.5 µM (5-lipoxygenase; [5]): 54%; inhibition at 25 µM (5-lipoxygenase; [4]): 93%; inhibition at 25 µM (5-lipoxygenase; [5]): 90%
Cc1c2n(c(=O)c3cc(O)cc(O)c13)CCCC2 [C, 1,2,3,4-tetrahydro-8,10-dihydroxy-11-methyl-6H-benzo[b]quinolizin-6-one]	100	61	–
CC(=O)Oc1ccc2c(C)c3n(c(=O)c2c1OC(C)=O)CCCC3 [D, 7,8-bis(acetyloxy)-1,2,3,4-tetrahydro-11-methyl-6H-benzo[b]quinolizin-6-one]	98	62	–

From patent publication US4897391A, “Tricyclic anti-allergy, antiinflammatory and anti-hyperproliferative compounds” (Schering Corporation, priority 1988, dated 1990)
